≈ marks a conversion by molar mass, not a printed value.
What was measured:
Format in all cases: cell-based
[1] = system: nasopharyngeal carcinoma cell CNE-1; test: MTT anti-tumor experiment in vitro, inhibition of nasopharyngeal carcinoma cell CNE-1
Description: (§1) Experiment 1, anti-tumor experiment of MTT in vitro
Inhibition experiment of nasopharyngeal carcinoma cell CNE-1
(§2) F1, 0.25% trypsin was added to nasopharyngeal carcinoma cell CNE-1 in the logarithmic growth phase for cell dissociation until adherent cells were failed off. Cell suspension containing 2×10^4 nasopharyngeal carcinoma cells CNE-1 per mL was prepared.
(§3) F2, a 96-well plate was taken, one row of the 96-well plate was set as a blank group, 9 rows were set as the experimental group 1, one row was set as the experimental group 2, and one row was set as the negative control group, wherein 6 wells in the middle of each row were used for the experiment and was added of 100 μL of RPMI-1640 medium, wherein the medium of negative control group contained 1% DMSO.
(§4) F3, 100 μL of cell suspension was added to each well of the blank group, the experimental group 1, the experimental group 2, and the negative control group. Then, the 96-well plate was placed in an incubator at 37 degree Celsius, 5% CO2, and 95% humidity, and cultured in the incubator for 12 hours. 100 μL phenylbenzofuran compound (phenylbenzofuran compound of embodiment 3) with a concentration was added to wells of each row of 9 rows in the experimental group 1, ie, 10 μg/mL, 20 μg/mL, 30 μg/mL, 40 μg/mL, 50 μg/mL, 60 μg/mL, 70 μg/mL, 80 μg/mL, and 90 μg/mL, wherein the concentration of phenylbenzofuran compound of wells in the same row was equal. As a parallel experiment, cisplatin (80 μg/mL, 100 μL) was added to wells of a row in the experimental group 2. Then, the 96-well plate was placed in an incubator at 37 degree Celsius, 5% CO2, and 95% humidity, and cultured in the incubator for 48 hours. MTT (5 mg/mL, 20 μL) was added to each well. Then, the 96-well plate was placed in an incubator at 37 degree Celsius, 5% CO2, and 95% humidity, and cultured in the incubator for 4 hours. The supernatant as removed by a pipette tip, 150 μL of DMSO was added, and the mixture was shaken for 10 minutes in a micro shaker to cause complete dissolution of crystal. The OD value of each well was measured at a wavelength of 570 nm by a microplate reader, and the IC50 value was calculated. That is, the concentration when the inhibition rate of the cells reached 50% was the IC50 value.
Proliferation rate of CNE-1 cell=(average of experimental group-average of blank control group)/(average of negative control group-average of blank control group)×100%.
Inhibition rate of CNE-1 cell=[…] of CNE-1 cell.

[2] = system: nasopharyngeal carcinoma cell CNE-2; test: MTT anti-tumor experiment in vitro, inhibition of nasopharyngeal carcinoma cell CNE-2
Description: as §1, §2, §3, §4
Inhibition experiment of nasopharyngeal carcinoma cell CNE-2
The experimental procedure of the inhibition experiment of nasopharyngeal carcinoma cell CNE-2 was the same as that of the inhibition experiment of nasopharyngeal carcinoma cell CNE-1, except that the nasopharyngeal carcinoma cell CNE-1 was replaced with the nasopharyngeal carcinoma cell CNE-2.

[3] = system: nasopharyngeal carcinoma cell CNE-1; test: MTT anti-tumor experiment in vitro, inhibition of nasopharyngeal carcinoma cell CNE-1; settings: 100 μg/mL, 48 hours, read-out: Inhibition rate of nasopharyngeal carcinoma cells (%) CNE-1
[4] = system: nasopharyngeal carcinoma cell CNE-2; test: MTT anti-tumor experiment in vitro, inhibition of nasopharyngeal carcinoma cell CNE-2; settings: Homo sapiens, 100 μg/mL, 48 hours, read-out: Inhibition rate of nasopharyngeal carcinoma cells (%) CNE-2

`N.N.[Cl][Pt][Cl]` [Cisplatin, cisplatin, reference compound] was tested, and the “Inhibition rate of nasopharyngeal carcinoma cells (%) CNE-1” value ([1]; 80 μg/mL, 48 hours, MTT) was 94.21 ± 0.18% and the “Inhibition rate of nasopharyngeal carcinoma cells (%) CNE-2” value ([2]; 80 μg/mL, 48 hours, MTT) was 97.37 ± 0.49%.

For `Oc1ccc(-c2cc3cc4c(cc3o2)OCO4)c(O)c1` [Phenylbenzofuran compound], the inhibition at 10 µg/mL ([1]; 10 μg/mL, 48 hours, MTT, read-out: Inhibition rate of nasopharyngeal carcinoma cells (%) CNE-1) was 25 ± 0.07%, the inhibition at 20 µg/mL ([1]; 20 μg/mL, 48 hours, MTT, read-out: Inhibition rate of nasopharyngeal carcinoma cells (%) CNE-1) was 37.57 ± 0.03% and the inhibition at 30 µg/mL ([1]; 30 μg/mL, 48 hours, MTT, read-out: Inhibition rate of nasopharyngeal carcinoma cells (%) CNE-1) was 45.52 ± 0.07%. For the same compound, the inhibition at 40 µg/mL ([1]; 40 μg/mL, 48 hours, MTT, read-out: Inhibition rate of nasopharyngeal carcinoma cells (%) CNE-1) was 60.37 ± 0.06%, the inhibition at 50 µg/mL ([1]; 50 μg/mL, 48 hours, MTT, read-out: Inhibition rate of nasopharyngeal carcinoma cells (%) CNE-1) was 68.5 ± 0.09% and the inhibition at 60 µg/mL ([1]; 60 μg/mL, 48 hours, MTT, read-out: Inhibition rate of nasopharyngeal carcinoma cells (%) CNE-1) was 75.01 ± 0.13%. For the same compound, the inhibition at 70 µg/mL ([1]; 70 μg/mL, 48 hours, MTT, read-out: Inhibition rate of nasopharyngeal carcinoma cells (%) CNE-1) was 85.83 ± 0.06%, the inhibition at 80 µg/mL ([1]; 80 μg/mL, 48 hours, MTT, read-out: Inhibition rate of nasopharyngeal carcinoma cells (%) CNE-1) was 97.02 ± 0.11% and the inhibition at 90 µg/mL ([1]; 90 μg/mL, 48 hours, MTT, read-out: Inhibition rate of nasopharyngeal carcinoma cells (%) CNE-1) was 97.81 ± 0.06%. For the same compound, the IC50 ([1]; CNE-1, 48 hours, read-out: concentration at which the inhibition rate reaches half inhibition growth effect) was 20 µg/mL (≈ 74 µM), the inhibition at 10 µg/mL ([2]; Homo sapiens, CNE-2, 10 μg/mL, 48 hours, MTT, read-out: Inhibition rate of nasopharyngeal carcinoma cells (%) CNE-2) was 28.4 ± 0.36% and the inhibition at 20 µg/mL ([2]; Homo sapiens, CNE-2, 20 μg/mL, 48 hours, MTT, read-out: Inhibition rate of nasopharyngeal carcinoma cells (%) CNE-2) was 43.61 ± 0.29%. For the same compound, the inhibition at 30 µg/mL ([2]; Homo sapiens, CNE-2, 30 μg/mL, 48 hours, MTT, read-out: Inhibition rate of nasopharyngeal carcinoma cells (%) CNE-2) was 48.5 ± 0.6%, the inhibition at 40 µg/mL ([2]; Homo sapiens, CNE-2, 40 μg/mL, 48 hours, MTT, read-out: Inhibition rate of nasopharyngeal carcinoma cells (%) CNE-2) was 75.18 ± 0.09% and the inhibition at 50 µg/mL ([2]; Homo sapiens, CNE-2, 50 μg/mL, 48 hours, MTT, read-out: Inhibition rate of nasopharyngeal carcinoma cells (%) CNE-2) was 84.42 ± 0.44%. It also gave an inhibition at 60 µg/mL ([2]; Homo sapiens, CNE-2, 60 μg/mL, 48 hours, MTT, read-out: Inhibition rate of nasopharyngeal carcinoma cells (%) CNE-2) of 95.13 ± 0.22%, an inhibition at 70 µg/mL ([2]; Homo sapiens, CNE-2, 70 μg/mL, 48 hours, MTT, read-out: Inhibition rate of nasopharyngeal carcinoma cells (%) CNE-2) of 97.27 ± 0.6% and an inhibition at 80 µg/mL ([2]; Homo sapiens, CNE-2, 80 μg/mL, 48 hours, MTT, read-out: Inhibition rate of nasopharyngeal carcinoma cells (%) CNE-2) of 98.78 ± 0.09%. The inhibition at 90 µg/mL ([2]; Homo sapiens, CNE-2, 90 μg/mL, 48 hours, MTT, read-out: Inhibition rate of nasopharyngeal carcinoma cells (%) CNE-2) was 98.82 ± 0.44%, the IC50 ([2]; Homo sapiens, CNE-2, 48 hours, read-out: concentration at which the inhibition rate reaches half inhibition growth effect) was 15 µg/mL (≈ 55.5 µM) and the inhibition at 100 µg/mL [3] was 97.41 ± 0.02%. The inhibition at 100 µg/mL [4] was 98.64 ± 0.22%.

Reference: patent US11208419B2, “Phenylbenzofuran compound, preparation method therefor, composition containing the same and medical application thereof” (Guangxi Botanical Garden of Medicinal Plants, priority 2018, dated 2021)
